According to patent US7713994B2 (Wyeth LLC, priority 2005, dated 2010):
Where two headings read alike, the source gives them in different places.

Columns and labels:
MCF-7 = assay: Cytotoxicity assay (SRB), MCF-7; assay type: cell-based; conditions: Homo sapiens, MCF7, 72 h, read-out: In Vitro Cellular Activity IC50 MCF-7
In short: (§1)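 Protein staining with sulforhodamine B after cold TCA fixation served as the survival endpoint (A540, relative to untreated cells). Before staining, cells were incubated with compound at 37 °C, 7% CO2 for 3 days, or 6 days for BT474.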

BT474 = assay: Cytotoxicity assay (SRB), BT474; assay type: cell-based; conditions: Homo sapiens, BT-474, 144 h, read-out: In Vitro Cellular Activity IC50 BT474
In short: as §1

LoVo = assay: Cytotoxicity assay (SRB), LoVo; assay type: cell-based; conditions: Homo sapiens, LoVo, 72 h, read-out: In Vitro Cellular Activity IC50 LOVO
In short: as §1

HCT-116 = assay: Cytotoxicity assay (SRB), HCT-116; assay type: cell-based; conditions: Homo sapiens, HCT-116, 72 h, read-out: In Vitro Cellular Activity IC50 HCT116
In short: as §1

cyclin B/CDK1 enzyme = target: T1, cyclin B/CDK1 enzyme (Homo sapiens, UniProt P06493); assay: CDK1 ELISA kinase assay (phospho-Rb ser 795 detection); assay type: biochemical
T1 construct: purchased New England BioLabs; host or cells: Sf9 insect cells, recombinant baculovirus
T1 sequence (P06493 whole entry): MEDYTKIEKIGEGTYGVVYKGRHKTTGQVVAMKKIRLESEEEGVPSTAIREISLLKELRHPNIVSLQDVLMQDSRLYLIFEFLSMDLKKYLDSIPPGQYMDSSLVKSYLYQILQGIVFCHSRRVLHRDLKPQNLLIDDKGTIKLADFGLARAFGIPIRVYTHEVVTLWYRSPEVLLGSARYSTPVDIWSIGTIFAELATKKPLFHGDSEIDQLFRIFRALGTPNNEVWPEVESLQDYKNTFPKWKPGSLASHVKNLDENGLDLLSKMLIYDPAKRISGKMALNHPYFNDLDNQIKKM
T1 sequence (P14635 whole entry partner): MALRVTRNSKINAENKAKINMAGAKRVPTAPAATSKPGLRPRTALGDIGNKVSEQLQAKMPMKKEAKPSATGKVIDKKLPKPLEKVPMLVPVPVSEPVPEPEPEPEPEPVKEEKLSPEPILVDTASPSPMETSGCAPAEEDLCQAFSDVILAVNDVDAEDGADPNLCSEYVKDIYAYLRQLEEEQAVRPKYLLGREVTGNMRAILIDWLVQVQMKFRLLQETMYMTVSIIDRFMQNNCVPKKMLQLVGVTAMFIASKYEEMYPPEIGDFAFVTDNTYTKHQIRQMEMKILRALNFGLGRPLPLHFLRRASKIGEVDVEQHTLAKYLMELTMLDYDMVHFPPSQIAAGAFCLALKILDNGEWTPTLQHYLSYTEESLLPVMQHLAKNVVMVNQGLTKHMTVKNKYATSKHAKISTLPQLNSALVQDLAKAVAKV
In short: (§2)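 Sf9-derived cyclin/CDK, 200 μM ATP, immobilized GST-Rb; 30° C/1 h. Detection: phospho-Ser795 Ab, HRP, TMB, OD450.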

cyclin D1/cdk 4 enzyme = target: T2, cyclin D1/cdk 4 enzyme (Homo sapiens, UniProt P11802); assay: CDK4 ELISA kinase assay (phospho-Rb ser 795 detection); assay type: biochemical
T2 construct: made in house; host or cells: Sf9 insect cells, recombinant baculovirus
T2 sequence (P11802 whole entry, species assumed): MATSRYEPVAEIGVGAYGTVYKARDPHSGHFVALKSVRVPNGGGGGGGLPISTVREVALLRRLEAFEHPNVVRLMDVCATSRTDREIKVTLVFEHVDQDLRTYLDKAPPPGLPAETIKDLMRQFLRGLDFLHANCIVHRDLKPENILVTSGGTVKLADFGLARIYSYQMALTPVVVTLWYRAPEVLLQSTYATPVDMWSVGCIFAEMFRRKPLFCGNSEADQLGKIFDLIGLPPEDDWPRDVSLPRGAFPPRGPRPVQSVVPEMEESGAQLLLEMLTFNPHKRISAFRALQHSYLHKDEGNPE
T2 sequence (P24385 whole entry partner, species assumed): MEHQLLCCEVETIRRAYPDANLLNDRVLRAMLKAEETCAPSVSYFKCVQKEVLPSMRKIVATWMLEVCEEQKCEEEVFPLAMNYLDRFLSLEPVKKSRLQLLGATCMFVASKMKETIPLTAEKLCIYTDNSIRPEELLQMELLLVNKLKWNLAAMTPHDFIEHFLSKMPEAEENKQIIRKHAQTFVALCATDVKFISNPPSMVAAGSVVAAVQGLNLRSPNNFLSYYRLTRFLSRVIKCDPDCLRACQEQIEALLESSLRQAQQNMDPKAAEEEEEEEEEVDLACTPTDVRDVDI
In short: as §2

cyclin E/CDK2 enzyme = target: T3, cyclin E/CDK2 enzyme (Homo sapiens, UniProt P24941); assay: CDK2 ELISA kinase assay (phospho-Rb ser 795 detection); assay type: biochemical
T3 construct: made in house; host or cells: Sf9 insect cells, recombinant baculovirus
Description: • 1. High-binding ELISA microtiter plates (Costar) were coated with 40 μl of the kinase substrate (GST fusion of C-terminal fragment of the retinoblastoma susceptibility gene product) diluted to 10 μg/ml in tris-buffered saline (TBS), overnight at 4° C. • 2. Non-specific binding sites were blocked for 1 hour at 4° C. with Superblock in TBS (Pierce), and the plates rinsed with water. • 3. For the screen, 1.5 μl of test compound (200 μg/ml stock in 20% DMSO/20 mM HEPES, pH 7.5) was added to each well. Final dose of the test compound in the assay was 10 ug/ml. […] The kinase reaction (30 μl) was dispensed into each well. Reactions contained 200 μM ATP, 0.5 mg/ml bovine serum albumin (BSA; Sigma), and 0.5 μl partially purified cyclin D1/cdk 4 enzyme*. The enzyme complex is expressed in insect cells (Sf9) infected with recombinant baculovirus and partially purified using ammonium sulfate fractionation. Reaction volumes were adjusted to 30 μl with kinase assay buffer (50 mM HEPES, pH 7.5, 10 mM MgCl2, 5% glycerol, 10 mM 2-mercaptoethanol). • *: For CDK2 assay, 1.0 μl cyclin E/CDK2 enzyme (diluted 1:1000 in kinase assay buffer) was used. The enzyme is isolated from insect cells (Sf9) infected with recombinant baculovirus and partially purified using ammonium sulfate fractionation. For CDK1 assay, 0.08 μl cyclin B/CDK1 enzyme [New England BioLabs; the enzyme is isolated from insect cells (Sf9) infected with recombinant baculovirus carrying human cdc 2 and human cyclin B] was used.
[…] • 5. Plates were incubated at 30° C. for 1 hour. • 6. The reaction mixture was removed by aspiration and replaced with 250 μl TBS containing 0.1% Tween-20 and 5% nonfat dry milk (blocking buffer). The plates were incubated at 4° C. for 1 hour. • 7. The blocking buffer was removed and replaced with 50 μl of the primary antibody [anti-phospho-Rb ser 795 (New England BioLabs) diluted 1:1000 in blocking buffer]. Incubation was at 4° C. for 16-20 hours. • 8. The wells were rinsed 3 times with 250 μl of TBS containing 0.1% Tween-20 followed by the addition of 50 μl of secondary antibody [anti-rabbit IgG conjugated to horseradish peroxidase (Amersham Life Science) diluted 1:1000 in blocking buffer]. • 9. After a 1 hour incubation at room temperature, the wells were rinsed 3 times with 250 μl of TBS/0.1% Tween 20. • 10. TMB (3,3′,5,5′-tetramethylbenzidine dihydrochloride) substrate solution (100 μl; Pierce) was added to each well and the color development reaction allowed to proceed 5-10 minutes at room temperature with shaking. The reaction was stopped by the addition of 2N sulfuric acid (100 μl) and the absorbance values read at 450 nm in a microplate reader (Molecular Devices). Analysis of Results: • 1. The percentage of the absorbance value in wells containing the test compound relative to control wells (no test agent) was determined. • 2. IC50 values of selected compounds were determined from inhibition curves, after subtracting background values (no substrate).

[1] = In Vitro Enzyme Assays, read-out: CDK1 IC50
[2] = In Vitro Enzyme Assays, 200 μM ATP, read-out: CDK4 IC50
[3] = In Vitro Enzyme Assays, read-out: CDK2 IC50
[4] = In Vitro Enzyme Assay, read-out: CDK1 IC50
[5] = In Vitro Enzyme Assay, read-out: CDK4 IC50
[6] = In Vitro Enzyme Assay, read-out: CDK2 IC50
[7] = In Vitro Enzyme Assay, cyclin B/CDK1, read-out: CDK1 IC50
[8] = In Vitro Enzyme Assay, cyclin D1/cdk 4, read-out: CDK4 IC50
[9] = In Vitro Enzyme Assay, cyclin E/CDK2, read-out: CDK2 IC50

SMILES	IC50 (cyclin B/CDK1 enzyme; [1]) [µM]	IC50 (cyclin D1/cdk 4 enzyme; [2]) [µM]	IC50 (cyclin E/CDK2 enzyme; [3]) [µM]	IC50 (MCF-7; MCF-7 cells, 3 days, SRB) [µM]	IC50 (LoVo; LoVo cells, 3 days, SRB) [µM]	IC50 (HCT-116; HCT116 cells, 3 days, SRB) [µM]	IC50 (BT474; BT474 cells, SRB, 6 days) [µM]	IC50 (LoVo; LoVo cells, SRB, three days) [µM]	also measured
CN(C)CC1CCCN1c1ccc(N/C=C2\C(=O)NC(=O)c3ccc(I)cc32)cc1F (centres unmarked) [Example 412, 4-{[4-(2-Dimethylaminomethyl-pyrrolidin-1-yl)-3-fluoro-phenylamino]-methylene}-6-iodo-4H-isoquinoline-1,3-dione]	> 50	3.3	> 50	4.3	3.2	1.8			IC50 (BT474; BT474 cells, 6 days, SRB): 5.6 µM
CN(C)NC(=O)Cc1ccc(N/C=C2\C(=O)NC(=O)c3ccc(Br)cc32)cc1 [Example 283, 2-(4-{[(Z)-(6-Bromo-1,3-dioxo-2,3-dihydroisoquinolin-4(1H)-ylidene)methyl]amino}phenyl)-N′,N′-dimethylacetohydrazide]	> 50	10	> 50						IC50 (MCF-7): 9.8 µM; IC50 (BT474): 16 µM; IC50 (LoVo): 17 µM; IC50 (HCT-116): 17 µM
CN(C)CCCN(C)c1ccc(N/C=C2\C(=O)NC(=O)c3ccc(Br)cc32)cc1 [Example 876, (4Z)-6-Bromo-4-[({4-[[3-(dimethylamino)propyl](methyl)amino]phenyl}amino)methylene]isoquinoline-1,3(2H,4H)-dione]				5.3	8.6	4.2			IC50 (cyclin B/CDK1 enzyme; [4]): > 50 µM; IC50 (cyclin D1/cdk 4 enzyme; [5]): 14.4 µM; IC50 (cyclin E/CDK2 enzyme; [6]): > 50 µM
CN1CCN(c2ccc(NC=C3C(=O)NC(=O)c4ccc(-c5ccc[nH]5)cc43)cc2)CC1 [Example 672, 4-{[4-(4-Methyl-piperazin-1-yl)-phenylamino]-methylene}-6-(1H-pyrrol-2-yl)-4H-isoquinoline-1,3-dione]				3.2	2.9	3.4			IC50 (BT474; BT474 cells, 6 days, SRB): 7.9 µM; IC50 (cyclin B/CDK1 enzyme; [7]): > 50 µM; IC50 (cyclin D1/cdk 4 enzyme; [8]): 0.64 µM; IC50 (cyclin E/CDK2 enzyme; [9]): > 50 µM
COc1ccc(NC=C2C(=O)NCc3cc(Br)ccc32)cc1 [Example 841, 7-Bromo-4-[(4-methoxy-phenylamino)-methylene]-1,4-dihydro-2H-isoquinolin-3-one]					34	36			IC50 (BT474; BT474 cells, 6 days, SRB): 47.8 µM; IC50 (cyclin B/CDK1 enzyme; [7]): > 50 µM; IC50 (cyclin E/CDK2 enzyme; [9]): 25.3 µM
CONCCCc1ccc(N/C=C2\C(=O)NC(=O)c3ccc(Br)cc32)cc1 [Example 875, (4Z)-6-bromo-4-[({4-[3-(methoxyamino)propyl]phenyl}amino)methylene]isoquinoline-1,3(2H,4H)-dione]				10.3	12.5	9.5			IC50 (cyclin B/CDK1 enzyme; [4]): 15.1 µM; IC50 (cyclin D1/cdk 4 enzyme; [5]): 1.9 µM; IC50 (cyclin E/CDK2 enzyme; [6]): 2.8 µM
CN1CCC(Oc2ccc(N/C=C3\C(=O)NC(=O)c4ccc(Br)cc43)cc2)C1 (centres unmarked) [Example 877, (4Z)-6-Bromo-4-[({4-[(1-methylpyrrolidin-3-yl)oxy]phenyl}amino)methylene]isoquinoline-1,3(2H,4H)-dione]				4.4	6.2	3.9			IC50 (cyclin B/CDK1 enzyme; [4]): > 50 µM; IC50 (cyclin D1/cdk 4 enzyme; [5]): 42.5 µM; IC50 (cyclin E/CDK2 enzyme; [6]): > 50 µM
O=C1NC(=O)c2ccc(Nc3ccccc3)cc2/C1=C/Nc1ccc(CN2CCCCC2)cc1 [Example 128, (4Z)-6-Anilino-4-({[4-(piperidin-1-ylmethyl)phenyl]amino}methylene)isoquinoline-1,3(2H,4H)-dione]	> 50	1.8	> 50				3.1	2.1	
C[C@@H]1CN(c2ccc(N/C=C3\C(=O)NC(=O)c4ccc(I)cc43)cc2)C[C@H](C)N1C [Example 234, (4Z)-6-Iodo-4-[({4-[(3R,5S)-3,4,5-trimethylpiperazin-1-yl]phenyl}amino)methylene]-isoquinoline-1,3(2H,4H)-dione]	> 50	2.8	> 50				2.5	3.4	
O=C1NC(=O)c2ccc(I)cc2/C1=C/Nc1ccc2ncccc2c1 [Example 272, (4Z)-6-Iodo-4-[(quinolin-6-ylamino)methylene]isoquinoline-1,3(2H,4H)-dione]	> 50		39.7				7.2	8.9	IC50 (MCF-7; MCF-7 cells, SRB, three days): 3.1 µM; IC50 (HCT-116; HCT116 cells, SRB, three days): 4.2 µM
CN1CCN(c2ccc(NC=C3C(=O)NCc4cc(Br)ccc43)cc2)CC1 [Example 842, 7-Bromo-4-{[4-(4-methyl-piperazin-1-yl)-phenylamino]-methylene}-1,4-dihydro-2H-isoquinolin-3-one]					5.7	4.5			IC50 (BT474; BT474 cells, 6 days, SRB): 7.2 µM; IC50 (cyclin B/CDK1 enzyme; [7]): > 50 µM; IC50 (cyclin D1/cdk 4 enzyme; [8]): 2.3 µM; IC50 (cyclin E/CDK2 enzyme; [9]): > 50 µM
O=C1NC(=O)c2ccccc2C1=CNCC(O)c1ccc(O)c(O)c1 (centres unmarked) [Example 564, 4-{[2-(3,4-Dihydroxy-phenyl)-2-hydroxy-ethylamino]-methylene}-4H-isoquinoline-1,3-dione]									IC50 (cyclin B/CDK1 enzyme; [7]): 16.9 µM; IC50 (cyclin D1/cdk 4 enzyme; [8]): 12.8 µM; IC50 (cyclin E/CDK2 enzyme; [9]): 13.8 µM

Now from value to compound, other results behind:

IC50 (cyclin B/CDK1 enzyme; [1]) [µM]	IC50 (cyclin D1/cdk 4 enzyme; [2]) [µM]	IC50 (cyclin E/CDK2 enzyme; [3]) [µM]	SMILES	IC50 (MCF-7; MCF-7 cells, 3 days, SRB) [µM]	IC50 (LoVo; LoVo cells, 3 days, SRB) [µM]	IC50 (HCT-116; HCT116 cells, 3 days, SRB) [µM]	IC50 (BT474; BT474 cells, SRB, 6 days) [µM]	IC50 (LoVo; LoVo cells, SRB, three days) [µM]	also measured
> 50	0.19	> 50	CC(=O)Nc1cc(CN/C=C2\C(=O)NC(=O)c3ccc(Br)cc32)cc(O)c1O [Example 213]				> 50	48	IC50 (MCF-7; MCF-7 cells, SRB, three days): > 50 µM; IC50 (HCT-116; HCT116 cells, SRB, three days): > 50 µM
45.5	0.17	4	CC1(C)Oc2cc(CN/C=C3\C(=O)NC(=O)c4ccc(Br)cc43)cc(O)c2O1 [Example 224, (4Z)-6-Bromo-4-({[(7-hydroxy-2,2-dimethyl-1,3-benzodioxol-5-yl)methyl]amino}methylene)isoquinoline-1,3(2H,4H)-dione]				9.6	7.9	IC50 (MCF-7; MCF-7 cells, SRB, three days): 7.4 µM; IC50 (HCT-116; HCT116 cells, SRB, three days): 6.4 µM
